Experimental data from US20160297830A1, “NOVEL COMPOUNDS USEFUL FOR THE TREATMENT OF BACTERIAL INFECTIOUS DISEASES” (GALAPAGOS NV, priority 2013, published 2016).
Converted amounts (≈) assume the structure as drawn. Read-outs that look alike come from different tables or passages of the source.

Columns and labels:
[1] = tested on: H. influenza Hi47 clinical strain, Ampicillin Resistant; test: organism not typed; format: cell-based; conditions: read-out: MIC Hi47
[2] = tested on: E. coli Ec113 efflux pump KO; test: microbe, parasite or virus in culture; format: cell-based; conditions: Escherichia coli, read-out: MIC Ec113 efflux pump KO
[3] = tested on: H. influenza Hi106 ATCC 51907; test: organism not typed; format: cell-based; conditions: read-out: MIC Hi106
[4] = biological target: DNA Polymerase IIIα (DnaE) from Staphylococcus aureus (Staphylococcus aureus, UniProt Q6GG04); test: biochemical
[5] = tested on: S. aureus Sa2 clinical strain NCIMB 41953, MRSA; test: microbe, parasite or virus in culture; format: cell-based; conditions: Staphylococcus aureus, read-out: MIC Sa2
DNA III Polymerase E = DNA III Polymerase E (Escherichia coli, UniProt P10443); test: In vitro activity against DNA III Polymerase E, E. coli; format: biochemical
Protocol: A radioactive filterplate assay was used to assess inhibitory activity of compounds on DNA Polymerase IIIα. Five μL of a dilution series of compound, starting from 100 μM highest concentration, 1/5 dilution, was added to the wells of a 96 well plate. Recombinant enzyme was diluted to 0.47 μg/mL in a buffer containing 20 mM Tris pH7.5, 8 mM DTT, 10 mM MgOAc, 0.05% CHAPS and 10 μL thereof was added to the compound dilutions. The reaction was started with the addition of 10 μL substrate in the same buffer, containing activated calf thymus DNA (Sigma, D4522), dATP, dGTP, dCTP, dTTP (Invitrogen) and [α-33P]-dTTP (Perkin Elmer, NEG605H001) at a concentration of 62.5 μg/mL, 50 nM and 7.5 μCi/mL respectively. The mixture was incubated at 30° C. for 120 minutes and terminated by addition of phosphoric acid. Samples were transferred to filter plates and incorporated radioactivity was measured by the Topcount. Data were converted to percent inhibition with respect to positive and negative controls. IC50 values were calculated using Graph Prism™ software.

[6] = tested on: H. influenza Hi10 clinical strain; test: organism not typed; format: cell-based; conditions: read-out: MIC Hi10
[7] = tested on: H. influenza Hi3 ATCC 31517; test: organism not typed; format: cell-based; conditions: read-out: MIC Hi3
E. coli Ec1 ATCC 25922 = test: Antibacterial activity assay (MIC), E. coli Ec1; format: cell-based; conditions: Escherichia coli
S. aureus Sa4 NCTC 6571 = test: Antibacterial activity assay (MIC), S. aureus Sa4; format: cell-based; conditions: Staphylococcus aureus
[8] = tested on: E. coli Ec50 efflux pump KO; test: microbe, parasite or virus in culture; format: cell-based; conditions: Escherichia coli, read-out: MIC Ec50 efflux pump KO
[9] = tested on: Methicillin Resistant S. aureus Sa2 (MRSA); test: animal or person; format: in vivo; conditions: 50 mg/kg PO BID, sample 24 h post infection, lung
[10] = tested on: S. aureus Sa26 ATCC 25923; test: Antibacterial activity assay (MIC), S. aureus Sa26; format: cell-based; conditions: Staphylococcus aureus
S. aureus Sa1 ATCC 13709 = test: microbe, parasite or virus in culture; format: cell-based; conditions: Staphylococcus aureus
[11] = tested on: Methicillin Resistant S. aureus (MRSA); test: Neutropenic mouse thigh infection model; conditions: Thigh Sa, Study 1; 100 mg/kg IP BID; sample time 7 h PI
[12] = ATCC25922, E. coli Ec1 ATCC 25922, sensitive strain, read-out: MIC Ec1
[13] = NCTC6571, S. aureus Sa4 NCTC 6571, sensitive strain, read-out: MIC Sa4
[14] = ATCC25923, read-out: MIC Sa26 + 10% SH, S. aureus Sa26 + 10% SH
[15] = ATCC25923, read-out: MIC Sa26 + 50% SH, S. aureus Sa26 + 50% SH
[16] = ATCC25923, S. aureus Sa26 ATCC 25923, sensitive strain, Mueller-Hinton Broth, 37° C., read-out: MIC Sa26
[17] = ATCC13709, S. aureus Sa1 ATCC 13709, sensitive strain, Mueller-Hinton Broth, 37° C., read-out: MIC Sa1
[18] = DNA polymerase III, E. coli, read-out: IC50 semiquantitative scoring, E. coli
[19] = ATCC25923, read-out: MIC Sa26 + 10% SH
[20] = ATCC25923, read-out: MIC Sa26 + 50% SH

Chain of DNA III Polymerase E (P10443 whole entry): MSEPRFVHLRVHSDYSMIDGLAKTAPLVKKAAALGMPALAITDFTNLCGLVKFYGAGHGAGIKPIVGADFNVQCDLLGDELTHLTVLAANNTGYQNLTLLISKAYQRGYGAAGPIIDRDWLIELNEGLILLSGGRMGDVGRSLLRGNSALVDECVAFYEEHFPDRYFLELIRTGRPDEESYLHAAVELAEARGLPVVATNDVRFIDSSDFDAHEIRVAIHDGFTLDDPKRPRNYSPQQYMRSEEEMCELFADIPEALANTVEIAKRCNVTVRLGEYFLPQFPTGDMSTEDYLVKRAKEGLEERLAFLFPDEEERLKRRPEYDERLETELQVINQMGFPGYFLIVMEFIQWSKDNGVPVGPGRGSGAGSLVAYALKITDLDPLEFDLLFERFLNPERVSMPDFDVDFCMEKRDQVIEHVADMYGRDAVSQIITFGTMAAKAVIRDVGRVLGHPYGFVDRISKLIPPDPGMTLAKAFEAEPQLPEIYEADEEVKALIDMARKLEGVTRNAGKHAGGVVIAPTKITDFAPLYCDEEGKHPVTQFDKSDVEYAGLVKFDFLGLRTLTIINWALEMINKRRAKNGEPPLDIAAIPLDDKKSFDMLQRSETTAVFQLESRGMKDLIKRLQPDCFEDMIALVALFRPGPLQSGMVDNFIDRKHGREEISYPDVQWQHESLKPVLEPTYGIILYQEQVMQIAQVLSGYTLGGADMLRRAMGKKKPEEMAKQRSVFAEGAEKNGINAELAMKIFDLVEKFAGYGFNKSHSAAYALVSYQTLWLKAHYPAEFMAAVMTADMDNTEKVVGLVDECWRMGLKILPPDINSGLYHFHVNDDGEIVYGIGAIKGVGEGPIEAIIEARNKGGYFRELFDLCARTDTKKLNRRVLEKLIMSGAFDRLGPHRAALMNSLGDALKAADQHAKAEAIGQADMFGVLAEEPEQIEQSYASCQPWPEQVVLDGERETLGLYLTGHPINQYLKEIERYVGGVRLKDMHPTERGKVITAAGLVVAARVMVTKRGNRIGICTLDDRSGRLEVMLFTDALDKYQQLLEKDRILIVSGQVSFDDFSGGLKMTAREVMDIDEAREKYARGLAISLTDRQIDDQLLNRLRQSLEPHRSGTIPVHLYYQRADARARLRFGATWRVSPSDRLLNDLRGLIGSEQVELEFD
Chain of DNA Polymerase IIIα (DnaE) from Staphylococcus aureus (Q6GG04 1-1022): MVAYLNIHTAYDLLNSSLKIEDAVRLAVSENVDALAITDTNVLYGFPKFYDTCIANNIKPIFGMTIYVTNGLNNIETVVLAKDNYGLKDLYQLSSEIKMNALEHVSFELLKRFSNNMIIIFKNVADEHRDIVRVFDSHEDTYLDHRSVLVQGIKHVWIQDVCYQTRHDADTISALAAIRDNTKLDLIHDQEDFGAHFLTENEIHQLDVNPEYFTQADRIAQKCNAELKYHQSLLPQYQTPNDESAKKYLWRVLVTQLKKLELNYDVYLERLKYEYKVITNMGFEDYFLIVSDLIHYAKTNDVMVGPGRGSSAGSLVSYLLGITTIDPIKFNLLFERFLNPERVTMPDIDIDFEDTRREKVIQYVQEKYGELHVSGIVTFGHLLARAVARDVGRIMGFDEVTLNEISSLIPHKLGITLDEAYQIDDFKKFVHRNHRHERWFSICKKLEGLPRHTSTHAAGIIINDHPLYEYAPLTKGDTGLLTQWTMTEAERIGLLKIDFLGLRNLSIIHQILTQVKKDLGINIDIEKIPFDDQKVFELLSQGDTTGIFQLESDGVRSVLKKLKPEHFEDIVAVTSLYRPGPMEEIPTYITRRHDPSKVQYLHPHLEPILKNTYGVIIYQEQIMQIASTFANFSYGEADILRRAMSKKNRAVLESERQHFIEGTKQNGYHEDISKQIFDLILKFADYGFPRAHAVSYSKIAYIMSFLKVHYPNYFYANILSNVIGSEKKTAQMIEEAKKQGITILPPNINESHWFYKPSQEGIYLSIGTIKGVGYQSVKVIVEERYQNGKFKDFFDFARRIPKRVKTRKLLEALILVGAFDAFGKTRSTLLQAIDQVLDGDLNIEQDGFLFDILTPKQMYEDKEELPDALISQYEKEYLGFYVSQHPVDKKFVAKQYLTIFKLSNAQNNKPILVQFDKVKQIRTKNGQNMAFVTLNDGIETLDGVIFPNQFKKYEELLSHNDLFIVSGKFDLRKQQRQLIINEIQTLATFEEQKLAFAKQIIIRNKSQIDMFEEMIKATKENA

Compound | MIC [1] | MIC [2] | MIC [3] | IC50 [4] | MIC [5] | MIC [6] | MIC [7] | MIC (E. coli Ec1 ATCC 25922; [12]) | MIC (S. aureus Sa4 NCTC 6571; [13]) | MIC [8] | MIC [10, 14] | MIC [10, 15] | MIC [10, 16] | MIC (S. aureus Sa1 ATCC 13709; [17]) | IC50 (DNA III Polymerase E; [18]) | MIC (E. coli Ec1 ATCC 25922; ATCC25922, read-out: MIC Ec1) | MIC (S. aureus Sa4 NCTC 6571; NCTC6571, read-out: MIC Sa4) | MIC ([10]; ATCC25923, read-out: MIC Sa26) | MIC [10, 19] | MIC [10, 20] | also measured
COC[C@@H]1[C@@H](O)[C@@H]2[C@H]3C=C[C@@H]4[C@@H](COC)C(=O)O[C@H]([C@H](O)COC)[C@H](C)/C=C(\C)[C@@]24O[C@H]3[C@@H]1OC(=O)c1cc(Cl)c[nH]1 [Compound 28, 8-O-4-Chloro-1H-pyrrole-2′-carbonylbranimycin] | 64 µg/mL (≈ 105 µM) | 1 µg/mL (≈ 1.64 µM) | 64 µg/mL (≈ 105 µM) | 1.64 to 1640 nM | 4 µg/mL (≈ 6.56 µM) | 64 µg/mL (≈ 105 µM) | > 64 µg/mL | > 64 µg/mL | 4 µg/mL (≈ 6.56 µM) | 64 µg/mL (≈ 105 µM) | 4 µg/mL | 16 µg/mL | 4 µg/mL (≈ 6.56 µM) | 2 µg/mL (≈ 3.28 µM) |  |  |  |  |  |  | IC50 (DNA III Polymerase E): 1640 to 16400 nM; log reduction at 50 mg/kg ([9]; Staphylococcus aureus, MRSA, in Mus musculus, po, 24 h, read-out: Log reduction vs. untreated, Study 3): 1.64; Active ([9]; Study 3): N
COC[C@H]1[C@@H](O)[C@@H]2O[C@@]34/C(C)=C/[C@@H](C)[C@@H]([C@H](O)COC)OC(=O)[C@H](COC)[C@H]3C=C[C@@H]2[C@H]4[C@@H]1O [Branimycin, reference compound] | > 64 µg/mL | 1 µg/mL (≈ 2.07 µM) | > 64 µg/mL | 2.07 to 2070 nM | 64 µg/mL (≈ 133 µM) | > 64 µg/mL | > 64 µg/mL |  |  | 8 µg/mL (≈ 16.6 µM) |  |  |  |  | 2070 to 20700 nM | > 64 µg/mL | 64 µg/mL (≈ 133 µM) | 64 µg/mL (≈ 133 µM) | 64 µg/mL | 64 µg/mL | Active [11]: N; Log reduction vs. untreated [11]: −0.3; MIC (S. aureus Sa1 ATCC 13709; ATCC13709, read-out: MIC Sa1): 64 µg/mL (≈ 133 µM)
COC[C@@H](O)[C@H]1OC(=O)[C@H](COC)[C@H]2C=C[C@H]3[C@H]4O[C@]2(/C(C)=C/[C@H]1C)[C@@H]3[C@H](O)[C@@H](C)[C@H]4OC(=O)c1ccc[nH]1 [Compound 3, 8-O-1H-pyrrole-2′-carbonylbaleomycin] | > 64 µg/mL | 0.125 µg/mL (≈ 0.229 µM) | 64 µg/mL (≈ 117 µM) | 1.83 to 1830 nM | 0.5 µg/mL (≈ 0.916 µM) | 64 µg/mL (≈ 117 µM) | > 64 µg/mL | > 64 µg/mL | 0.5 µg/mL (≈ 0.916 µM) | 8 µg/mL (≈ 14.7 µM) | 1 µg/mL | 2 µg/mL | 1 µg/mL (≈ 1.83 µM) | 0.5 µg/mL (≈ 0.916 µM) | 1830 to 18300 nM |  |  |  |  |  | 
COCC(=O)[C@H]1OC(=O)[C@H](COC)[C@H]2C=C[C@H]3[C@H]4O[C@]2(/C(C)=C/[C@H]1C)[C@@H]3[C@H](O)[C@@H](COC)[C@H]4OC(=O)c1ccc[nH]1 [Compound 20, 18-Deoxy-18-oxo-8-O-1H-pyrrole-2′-carbonylbranimycin] | > 64 µg/mL | 16 µg/mL (≈ 27.9 µM) | > 64 µg/mL | 1.74 to 1740 nM | 2 µg/mL (≈ 3.49 µM) | > 64 µg/mL | > 64 µg/mL |  |  | > 64 µg/mL |  |  |  |  | > 17400 nM | > 64 µg/mL | 4 µg/mL (≈ 6.97 µM) | 8 µg/mL (≈ 13.9 µM) | 16 µg/mL | 32 µg/mL | MIC (S. aureus Sa1 ATCC 13709; ATCC13709, read-out: MIC Sa1): 8 µg/mL (≈ 13.9 µM)
COC[C@@H]1[C@@H](O)[C@@H]2[C@H]3C=C[C@@H]4[C@@H](COC)C(=O)O[C@H]([C@H](O)COC)[C@H](C)/C=C(\C)[C@@]24O[C@H]3[C@@H]1OC(=O)c1ccon1 [Compound 13, 8-O-Isoxazole-3′-carbonylbranimycin] | 64 µg/mL (≈ 111 µM) | 8 µg/mL (≈ 13.8 µM) | > 64 µg/mL |  | > 64 µg/mL | > 64 µg/mL | > 64 µg/mL | > 64 µg/mL | 64 µg/mL (≈ 111 µM) | 64 µg/mL (≈ 111 µM) | > 64 µg/mL | > 64 µg/mL | > 64 µg/mL | > 64 µg/mL | > 17300 nM |  |  |  |  |  | IC50 ([4]; DNA polymerase III, S. aureus, read-out: IC50 semiquantitative scoring, S. aureus): 1730 to 17300 nM
